Measured values reported in article PMC10041525, “New Dual Inhibitors of Bacterial Topoisomerases with Broad-Spectrum Antibacterial Activity and In Vivo Efficacy against Vancomycin-Intermediate Staphylococcus aureus” (Journal of Medicinal Chemistry, 2023).
Values after ≈ are worked out from the molar mass of the structure shown. Where two headings read alike, the source gives them in different places.

System: 100 A. baumannii strains (50 MDR, 50 non-MDR)
Experiment: MIC broth microdilution at IHMA Europe, panel of 100 strains
Format: cell-based
Conditions: Acinetobacter baumannii, read-out: MIC

MIC (A. baumannii IHMA 1769782, Israel 2018, MDR): > 32 µg/mL
MIC (A. baumannii IHMA 1769910, Israel 2018, Non-MDR): 8 µg/mL (≈ 16.6 µM)
MIC (A. baumannii IHMA 1790317, Czech Republic 2018, Non-MDR): 1 µg/mL (≈ 2.08 µM)
MIC (A. baumannii IHMA 1790916, Romania 2018, Non-MDR): 0.5 µg/mL (≈ 1.04 µM)
MIC (A. baumannii IHMA 1791877, Israel 2018, MDR): > 32 µg/mL
MIC (A. baumannii IHMA 1792961, Jordan 2018, MDR): > 32 µg/mL
MIC (A. baumannii IHMA 1795669, Tunisia 2018, Non-MDR): 4 µg/mL (≈ 8.32 µM)
MIC (A. baumannii IHMA 1814276, Lebanon 2018, MDR): > 32 µg/mL
MIC (A. baumannii IHMA 1815198, Kuwait 2018, MDR): > 32 µg/mL
MIC (A. baumannii IHMA 1815856, Israel 2018, MDR): > 32 µg/mL
MIC (A. baumannii IHMA 1829500, Georgia 2018, Non-MDR): 1 µg/mL (≈ 2.08 µM)
MIC (A. baumannii IHMA 1830924, United Kingdom 2018, Non-MDR): 4 µg/mL (≈ 8.32 µM)
MIC (A. baumannii IHMA 1849819, Kuwait 2018, MDR): > 32 µg/mL
MIC (A. baumannii IHMA 1849829, Kuwait 2018, Non-MDR): 1 µg/mL (≈ 2.08 µM)
MIC (A. baumannii IHMA 1857118, Slovenia 2018, Non-MDR): 1 µg/mL (≈ 2.08 µM)
MIC (A. baumannii IHMA 1863631, France 2018, Non-MDR): 1 µg/mL (≈ 2.08 µM)
MIC (A. baumannii IHMA 1884428, Italy 2018, Non-MDR): 1 µg/mL (≈ 2.08 µM)
MIC (A. baumannii IHMA 1884990, Germany 2018, Non-MDR): 1 µg/mL (≈ 2.08 µM)
MIC (A. baumannii IHMA 1900538, Turkey 2018, Non-MDR): 0.5 µg/mL (≈ 1.04 µM)
MIC (A. baumannii IHMA 1913773, Kenya 2018, Non-MDR): 1 µg/mL (≈ 2.08 µM)
MIC (A. baumannii IHMA 1926285, Qatar 2018, Non-MDR): ≤ 0.25 µg/mL
MIC (A. baumannii IHMA 1926288, Qatar 2018, MDR): 32 µg/mL (≈ 66.6 µM)
MIC (A. baumannii IHMA 1963732, Turkey 2019, MDR): 32 µg/mL (≈ 66.6 µM)
MIC (A. baumannii IHMA 1967860, Spain 2019, Non-MDR): 4 µg/mL (≈ 8.32 µM)
MIC (A. baumannii IHMA 1971673, Latvia 2019, MDR): > 32 µg/mL
MIC (A. baumannii IHMA 1983151, Greece 2019, MDR): 32 µg/mL (≈ 66.6 µM)
MIC (A. baumannii IHMA 1984665, Lithuania 2019, MDR): > 32 µg/mL
MIC (A. baumannii IHMA 1986738, Turkey 2019, MDR): > 32 µg/mL
MIC (A. baumannii IHMA 1987162, Croatia 2019, MDR): > 32 µg/mL
MIC (A. baumannii IHMA 1993615, Turkey 2019, MDR): > 32 µg/mL
MIC (A. baumannii IHMA 1994284, Italy 2019, MDR): 32 µg/mL (≈ 66.6 µM)
MIC (A. baumannii IHMA 1995161, Czech Republic 2019, Non-MDR): 1 µg/mL (≈ 2.08 µM)
MIC (A. baumannii IHMA 1997936, Morocco 2019, Non-MDR): 1 µg/mL (≈ 2.08 µM)
MIC (A. baumannii IHMA 1999178, Belgium 2019, Non-MDR): 1 µg/mL (≈ 2.08 µM)
MIC (A. baumannii IHMA 2003279, Turkey 2019, MDR): > 32 µg/mL
MIC (A. baumannii IHMA 2014931, South Africa 2019, Non-MDR): 1 µg/mL (≈ 2.08 µM)
MIC (A. baumannii IHMA 2019315, Romania 2019, Non-MDR): 0.5 µg/mL (≈ 1.04 µM)
MIC (A. baumannii IHMA 2020360, Croatia 2019, MDR): 32 µg/mL (≈ 66.6 µM)
MIC (A. baumannii IHMA 2031511, Greece 2019, Non-MDR): 1 µg/mL (≈ 2.08 µM)
MIC (A. baumannii IHMA 2031524, Greece 2019, MDR): > 32 µg/mL
MIC (A. baumannii IHMA 2034657, Tunisia 2019, Non-MDR): 1 µg/mL (≈ 2.08 µM)
MIC (A. baumannii IHMA 2035089, Serbia 2019, MDR): 32 µg/mL (≈ 66.6 µM)
MIC (A. baumannii IHMA 2035134, Serbia 2019, Non-MDR): 1 µg/mL (≈ 2.08 µM)
MIC (A. baumannii IHMA 2038976, Hungary 2019, MDR): 32 µg/mL (≈ 66.6 µM)
MIC (A. baumannii IHMA 2051503, Serbia 2019, MDR): > 32 µg/mL
MIC (A. baumannii IHMA 2058329, Slovenia 2019, Non-MDR): 1 µg/mL (≈ 2.08 µM)
MIC (A. baumannii IHMA 2065587, France 2019, Non-MDR): 1 µg/mL (≈ 2.08 µM)
MIC (A. baumannii IHMA 2099294, United Kingdom 2019, Non-MDR): 4 µg/mL (≈ 8.32 µM)
MIC (A. baumannii IHMA 2129256, Qatar 2019, Non-MDR): 1 µg/mL (≈ 2.08 µM)
MIC (A. baumannii IHMA 2154584, Israel 2020, MDR): > 32 µg/mL
MIC (A. baumannii IHMA 2155340, Kenya 2020, MDR): > 32 µg/mL
MIC (A. baumannii IHMA 2156634, Turkey 2020, MDR): > 32 µg/mL
MIC (A. baumannii IHMA 2156709, Turkey 2020, MDR): > 32 µg/mL
SMILES: CO/N=C(\C(=O)N[C@@H]1C(=O)N2C(C(=O)[O-])=C(C[N+]3(C)CCCC3)CS[C@H]12)c1csc(N)n1 [Cefepime, cefepime]
